Results: ChEMBL document CHEMBL5331098, “Nanomolar β-glucosidase and β-galactosidase inhibition by enantiomeric α-1-C-alkyl-1,4-dideoxy-1,4-imino-arabinitol derivatives” (Eur J Med Chem, 2023)

Legend:
Alpha-glucosidase = Alpha-glucosidase (Saccharomyces cerevisiae S288c, UniProt P53341+P38158+P07265); assay: Inhibition of yeast alpha-glucosidase assessed as reduction of p-nitrophenol release using p-nitrophenyl glycoside as substrate by spectrophotometric analysis; type: protein assay
Oryza sativa = assay: Inhibition of rice alpha-glucosidase assessed as reduction of p-nitrophenol release using p-nitrophenyl glycoside as substrate at 1000 uM by spectrophotometric analysis relative to control
Rattus norvegicus = species on record: Rattus norvegicus; assay: Inhibition of rat intestinal maltase assessed as D-glucose release using maltose as substrate at pH 6.8 at 1000 uM by colorimetric method relative to control
[1] = Inhibition of almond beta-glucosidase assessed as reduction of p-nitrophenol release using p-nitrophenyl glycoside as substrate by spectrophotometric analysis; set-up: species or system Prunus dulcis
[2] = Inhibition of bovine liver beta-glucosidase assessed as reduction of p-nitrophenol release using p-nitrophenyl glycoside as substrate by spectrophotometric analysis; set-up: species or system Bos taurus
[3] = Inhibition of human lysosomal beta-glucosidase assessed as reduction of p-nitrophenol release using p-nitrophenyl glycoside as substrate by spectrophotometric analysis
[4] = target: Alpha-galactosidase (Coffea arabica) (UniProt Q42656); assay: Inhibition of coffee beans alpha-galactosidase assessed as reduction of p-nitrophenol release using p-nitrophenyl glycoside as substrate at 1000 uM by spectrophotometric analysis relative to control
Sequence of Alpha-galactosidase (Coffea arabica) (Q42656 16-378 limits assumed): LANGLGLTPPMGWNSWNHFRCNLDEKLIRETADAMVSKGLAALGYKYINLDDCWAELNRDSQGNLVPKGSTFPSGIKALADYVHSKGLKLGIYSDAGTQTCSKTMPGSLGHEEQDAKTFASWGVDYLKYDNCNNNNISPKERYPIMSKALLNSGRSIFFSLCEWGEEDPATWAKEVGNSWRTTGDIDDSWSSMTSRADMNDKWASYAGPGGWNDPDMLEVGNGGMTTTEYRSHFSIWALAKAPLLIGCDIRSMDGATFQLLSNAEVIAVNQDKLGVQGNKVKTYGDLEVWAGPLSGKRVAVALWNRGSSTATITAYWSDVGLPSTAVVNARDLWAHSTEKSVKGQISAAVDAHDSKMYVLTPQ

[5] = Inhibition of bovine liver beta-galactosidase assessed as reduction of p-nitrophenol release using p-nitrophenyl glycoside as substrate by spectrophotometric analysis; set-up: species or system Bos taurus
[6] = target: T1, Alpha-mannosidase (Canavalia ensiformis) (UniProt C0HJB3); assay: Inhibition of jack bean alpha-mannosidase assessed as reduction of p-nitrophenol release using p-nitrophenyl glycoside as substrate at 1000 uM by spectrophotometric analysis relative to control
T1 sequence (whole entry): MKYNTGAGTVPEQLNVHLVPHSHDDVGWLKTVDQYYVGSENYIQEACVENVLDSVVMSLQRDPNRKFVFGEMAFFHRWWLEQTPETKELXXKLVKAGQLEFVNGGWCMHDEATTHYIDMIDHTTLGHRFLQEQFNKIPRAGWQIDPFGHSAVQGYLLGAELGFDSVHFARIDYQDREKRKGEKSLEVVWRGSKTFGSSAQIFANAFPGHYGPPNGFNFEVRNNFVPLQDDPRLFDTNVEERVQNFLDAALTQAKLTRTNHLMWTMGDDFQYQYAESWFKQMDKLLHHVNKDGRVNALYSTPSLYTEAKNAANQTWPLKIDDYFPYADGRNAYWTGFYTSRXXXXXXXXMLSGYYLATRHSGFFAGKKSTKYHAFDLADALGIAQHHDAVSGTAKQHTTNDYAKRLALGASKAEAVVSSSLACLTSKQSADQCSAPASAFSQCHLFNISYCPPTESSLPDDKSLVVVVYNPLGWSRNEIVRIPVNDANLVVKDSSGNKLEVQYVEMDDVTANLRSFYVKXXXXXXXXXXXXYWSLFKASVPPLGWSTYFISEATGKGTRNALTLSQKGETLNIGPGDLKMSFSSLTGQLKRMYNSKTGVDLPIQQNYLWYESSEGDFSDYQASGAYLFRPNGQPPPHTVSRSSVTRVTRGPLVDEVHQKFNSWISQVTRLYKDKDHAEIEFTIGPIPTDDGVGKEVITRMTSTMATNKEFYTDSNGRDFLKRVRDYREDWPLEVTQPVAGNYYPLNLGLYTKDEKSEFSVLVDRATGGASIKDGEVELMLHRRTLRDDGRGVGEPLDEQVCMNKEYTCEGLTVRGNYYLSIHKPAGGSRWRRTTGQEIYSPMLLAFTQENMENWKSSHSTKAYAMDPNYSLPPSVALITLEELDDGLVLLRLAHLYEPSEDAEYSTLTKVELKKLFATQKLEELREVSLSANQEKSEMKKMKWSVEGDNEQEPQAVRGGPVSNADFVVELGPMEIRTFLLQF

[7] = Inhibition of snail beta-mannosidase assessed as reduction of p-nitrophenol release using p-nitrophenyl glycoside as substrate by spectrophotometric analysis; set-up: species or system Helix pomatia
Sus scrofa = species on record: Sus scrofa; assay: Inhibition of porcine kidney alpha/alpha-trehalase assessed as reduction of p-nitrophenol release using p-nitrophenyl glycoside as substrate at 1000 uM by spectrophotometric analysis relative to control
[8] = Inhibition of Aspergillus niger amyloglucosidase assessed as reduction of p-nitrophenol release using p-nitrophenyl-glycoside as substrate by spectrophotometric analysis
Penicillium decumbens = assay: Inhibition of Penicillium decumbens alpha-L-rhamnosidase assessed as reduction of p-nitrophenol release using p-nitrophenyl-glycoside as substrate at 1000 uM by spectrophotometric analysis relative to control
Beta-glucuronidase = Beta-glucuronidase (Escherichia coli (strain K12), UniProt P05804); assay: Inhibition of Escherichia coli beta-glucuronidase assessed as reduction of p-nitrophenol release using p-nitrophenyl-glycoside as substrate by spectrophotometric analysis
Sequence of Beta-glucuronidase (P05804 whole entry): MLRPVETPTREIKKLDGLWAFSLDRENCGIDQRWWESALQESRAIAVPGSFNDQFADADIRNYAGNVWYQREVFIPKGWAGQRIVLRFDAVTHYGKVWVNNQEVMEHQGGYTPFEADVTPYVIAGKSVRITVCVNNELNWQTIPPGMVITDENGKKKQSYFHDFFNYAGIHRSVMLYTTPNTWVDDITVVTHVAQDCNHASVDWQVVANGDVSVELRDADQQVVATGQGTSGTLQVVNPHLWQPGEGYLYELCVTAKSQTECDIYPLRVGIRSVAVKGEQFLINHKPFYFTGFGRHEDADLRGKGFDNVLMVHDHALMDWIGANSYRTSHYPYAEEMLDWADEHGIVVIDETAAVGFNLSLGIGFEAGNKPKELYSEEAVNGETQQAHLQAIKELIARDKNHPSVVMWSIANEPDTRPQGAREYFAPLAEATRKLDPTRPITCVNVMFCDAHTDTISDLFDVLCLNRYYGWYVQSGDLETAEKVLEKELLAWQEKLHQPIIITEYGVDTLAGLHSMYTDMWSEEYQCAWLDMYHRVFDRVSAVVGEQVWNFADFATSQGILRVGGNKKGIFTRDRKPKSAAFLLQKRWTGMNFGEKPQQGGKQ

Bos taurus [9] = species on record: Bos taurus; assay: Inhibition of bovine liver beta-glucuronidase assessed as reduction of p-nitrophenol release using p-nitrophenyl-glycoside as substrate at 1000 uM by spectrophotometric analysis relative to control
[10] = target: Alpha-glucosidase (Saccharomyces cerevisiae S288c) (UniProt P53341+P38158+P07265); assay: Inhibition of yeast alpha-glucosidase assessed as reduction of p-nitrophenol release using p-nitrophenyl glycoside as substrate at 1000 uM by spectrophotometric analysis relative to control; type: protein assay
[11] = Inhibition of rat intestinal maltase assessed as D-glucose release using maltose as substrate at pH 6.8 by colorimetric method
Prunus dulcis = assay: Inhibition of almond beta-glucosidase assessed as reduction of p-nitrophenol release using p-nitrophenyl glycoside as substrate at 1000 uM by spectrophotometric analysis relative to control
Bos taurus [12] = species on record: Bos taurus; assay: Inhibition of bovine liver beta-glucosidase assessed as reduction of p-nitrophenol release using p-nitrophenyl glycoside as substrate at 1000 uM by spectrophotometric analysis relative to control
Bos taurus [13] = species on record: Bos taurus; assay: Inhibition of bovine liver beta-galactosidase assessed as reduction of p-nitrophenol release using p-nitrophenyl glycoside as substrate at 1000 uM by spectrophotometric analysis relative to control
Helix pomatia = assay: Inhibition of snail beta-mannosidase assessed as reduction of p-nitrophenol release using p-nitrophenyl glycoside as substrate at 1000 uM by spectrophotometric analysis relative to control
[14] = target: T2, Tissue alpha-L-fucosidase (Bos taurus) (UniProt Q2KIM0); assay: Inhibition of bovine kidney alpha-L-fucosidase assessed as reduction of p-nitrophenol release using p-nitrophenyl glycoside as substrate at 1000 uM by spectrophotometric analysis relative to control
T2 sequence (whole entry): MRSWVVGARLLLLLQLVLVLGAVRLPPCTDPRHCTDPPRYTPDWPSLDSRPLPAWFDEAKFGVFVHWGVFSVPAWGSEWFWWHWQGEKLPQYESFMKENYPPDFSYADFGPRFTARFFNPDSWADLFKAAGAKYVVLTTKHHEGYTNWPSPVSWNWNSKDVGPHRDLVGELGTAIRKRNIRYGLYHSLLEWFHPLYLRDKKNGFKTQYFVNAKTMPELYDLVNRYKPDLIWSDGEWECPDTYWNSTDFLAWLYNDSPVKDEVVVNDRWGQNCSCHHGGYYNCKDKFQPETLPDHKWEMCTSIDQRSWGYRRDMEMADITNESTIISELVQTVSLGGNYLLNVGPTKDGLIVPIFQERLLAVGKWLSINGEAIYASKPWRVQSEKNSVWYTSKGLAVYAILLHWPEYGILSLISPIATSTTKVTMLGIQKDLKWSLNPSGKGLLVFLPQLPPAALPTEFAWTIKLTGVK

Aspergillus niger = assay: Inhibition of Aspergillus niger amyloglucosidase assessed as reduction of p-nitrophenol release using p-nitrophenyl-glycoside as substrate at 1000 uM by spectrophotometric analysis relative to control
[15] = target: Beta-glucuronidase (Escherichia coli (strain K12)) (UniProt P05804); assay: Inhibition of Escherichia coli beta-glucuronidase assessed as reduction of p-nitrophenol release using p-nitrophenyl-glycoside as substrate at 1000 uM by spectrophotometric analysis relative to control
Sequence of Beta-glucuronidase (Escherichia coli (strain K12)) (P05804 whole entry, looked up): as the sequence (P05804 whole entry) above

[16] = Inhibition of rice alpha-glucosidase assessed as reduction of p-nitrophenol release using p-nitrophenyl glycoside as substrate by spectrophotometric analysis; set-up: species or system Oryza sativa

Compound | IC50 (Alpha-glucosidase) [µM] | inhibition (Oryza sativa) [%] | inhibition (Rattus norvegicus) [%] | IC50 [1] [nM] | IC50 [2] [nM] | IC50 [3] [µM] | inhibition [4] [%] | IC50 [5] [nM] | inhibition [6] [%] | IC50 [7] [µM] | inhibition (Sus scrofa) [%] | IC50 [8] [µM] | inhibition (Penicillium decumbens) [%] | IC50 (Beta-glucuronidase) [µM] | inhibition (Bos taurus [9]) [%] | inhibition [10] [%] | IC50 [11] [µM] | inhibition [14] [%] | IC50 [16] [µM] | other results
CC(C)(C)c1ccc(CCCCCC[C@@H](O)[C@H]2N[C@H](CO)[C@@H](O)[C@@H]2O)cc1.Cl | 57 | 36.6 | 48.7 | 64 | 4 | 0.81 | 5.5 | 2 | 8.7 | 14 | 2.3 | 16 | 4.8 | 2.9 | 4.3 | – | – | – | – | –
OC[C@@H]1N[C@@H]([C@H](O)CCCCCCc2ccc(Cl)cc2)[C@H](O)[C@H]1O | – | 34 | – | – | – | 109 | 1.3 | – | 0.8 | – | 0 | – | 0 | – | 0 | 11.4 | 28 | 0 | – | inhibition (Prunus dulcis): 9.6%; inhibition (Bos taurus [12]): 21%; inhibition (Bos taurus [13]): 37.3%; inhibition (Helix pomatia): 0.4%; inhibition (Aspergillus niger): 8.7%; inhibition [15]: 4.8%
O=C1CCCC=C1CCCCCCC[C@H]1N[C@H](CO)[C@@H](O)[C@@H]1O | 21.6 | – | – | 9800 | 120 | – | 19.6 | 30 | 15.1 | 282 | 0.8 | 30 | 35.1 | 3.3 | 46.1 | – | 66.6 | 16.8 | 119 | –
CC(C)(C)c1ccc(CCCCCC[C@@H](O)[C@@H]2N[C@@H](CO)[C@H](O)[C@H]2O)cc1 | – | – | – | – | – | 6.3 | 1 | 75000 | 0 | – | 0 | – | 4.6 | – | 18.4 | 11.4 | 22 | 0 | 21 | inhibition (Prunus dulcis): 21.8%; inhibition (Bos taurus [12]): 40%; inhibition (Helix pomatia): 0.8%; inhibition (Aspergillus niger): 8.7%; inhibition [15]: 23.5%
OC[C@H]1N[C@H](CCCCCCCc2ccccc2)[C@@H](O)[C@@H]1O | 33 | – | – | 10000 | 120 | – | 5 | 21 | 8.4 | 375 | 10.7 | 36 | 43.9 | 97 | 9.8 | – | 1.6 | 7.9 | 6.3 | –
CC(C)(C)c1ccc(CCCCCC[C@H](O)[C@H]2N[C@H](CO)[C@@H](O)[C@@H]2O)cc1 | – | 48.6 | 14.1 | 360 | 50 | 3.2 | 0.9 | 14 | 0 | 96 | 0 | 63 | 6.2 | 23 | 0 | 27.6 | – | 0 | – | –
Cl.OC[C@H]1N[C@H]([C@H](O)CCCCCCc2ccc(F)cc2)[C@@H](O)[C@@H]1O | 83 | 10.2 | 24.2 | 150 | 9 | 3.3 | 8.6 | 5 | 13.9 | 20 | 0 | 30 | 4.1 | 36 | 7.1 | – | – | – | – | –
Cl.OC[C@H]1N[C@H]([C@H](O)CCCCCCc2ccc(F)c(F)c2)[C@@H](O)[C@@H]1O | 87 | 43.4 | 42.5 | 530 | 7 | 2.7 | 17.2 | 4 | 16.6 | 16 | 1.4 | 11 | 27 | 21 | 4.3 | – | – | – | – | –
OC[C@H]1N[C@H]([C@H](O)CCCCCCc2ccc(Cl)cc2)[C@@H](O)[C@@H]1O | – | 8.9 | 18.2 | 120 | 5 | 2.1 | 0 | 3 | 4.5 | 37 | 6 | 32 | 1.3 | 41 | 0 | 42.3 | – | 0.6 | – | –
